Series [1] can be described thus: Cyclic voltammetry of Tb, HEDP and ZOL. The following applies: glassy carbon electrode, Ag/AgCl reference, carbonate buffer pH 9.
Series [2] in a line: Radioelectrophoresis (net charge of complexes). It is filed as physicochemical. The following applies: 0.05 M phosphate buffer pH 7.4, 250 V, 1 h. The procedure: Radioelectrophoresis was employed to determine the net charge of the ^161Tb-labeled diphosphonate complexes and to confirm successful radiolabeling. For each sample, 5 μL of the radiolabeled complex or a control solution of ^161TbCl3 was applied to the center of Whatman 3MM chromatography paper strips (2 × 25 cm), which had been pre-soaked in 0.05 M phosphate buffer (pH 7.4). The strips were placed in an electrophoresis chamber filled with the same phosphate buffer, and electrophoresis was carried out at 250 V for 1 h using a Gelman Instrument electrophoresis system (Gelman Instrument Co., Ann Arbor, MI, USA). After radioelectrophoresis, each strip was dried and scanned using a TLC scanner. This method allowed the determination of the migration pattern of the radiolabeled species compared to free ^161Tb^3+, providing information about the charge and integrity of the formed complexes.

Series [3] in a line: Biodistribution in healthy Wistar rats. The format is in vivo. The following applies: i.v. The procedure: All animal experiments were conducted using healthy Wistar rats weighing 100–120 g. The rats were obtained from the Military Medical Academy (Belgrade, Serbia). All procedures involving animals were approved by the Ethical Committee of the Vinča Institute of Nuclear Sciences (permission No. 002225501 2025, issued on 20 May 2025) and were performed by the Directive 2010/63/EU of the European Parliament and of the Council of 22 September 2010 [50] on the protection of animals used for scientific purposes, as well as national animal welfare laws.
A total of 0.74 MBq of each ^161Tb-labeled compound (^161Tb-HEDP and ^161Tb-ZOL) and free ^161TbCl3 (at pH 7.5 and pH 4.5) was prepared in a final injection volume of 0.1 mL. Physiological saline was added to adjust the concentration to 10 µg of radiolabeled complex per 0.1 mL. Each formulation was administered intravenously via the lateral tail vein.
Animals (n = 3 per time point) were sacrificed at predetermined intervals: 2 h, 24 h, and 7 d post-injection, depending on the study group. Euthanasia was performed by intraperitoneal injection of a ketamine/xylazine overdose. Immediately after sacrifice, major organs and tissues (heart, lungs, liver, spleen, kidneys, stomach, intestines, muscle, and femur) were collected, weighed, and assessed for radioactivity using a gamma counter. The biodistribution of radiolabeled compounds was expressed as the percentage of the injected dose per gram of tissue (%ID/g), calculated by comparing the sample activity to that of the standard representing 100% of the injected dose. All data are presented as mean ± standard deviation (SD).

The mark [4] stands for this setting: 2 h post-injection (initial), injected at pH 4.5.
[5] abbreviates: 2 h post-injection, injected at pH 4.5.
Where [6] appears, read: 2 h post-injection, injected at pH 7.5.
The mark [7] stands for this setting: 7 d post-injection, injected at pH 7.5.

For `CC(O)(P(=O)(O)O)P(=O)(O)O` [HEDP, 1-Hydroxyethylidene-1,1-diphosphonic acid], in series [1], the “Second Oxidation Pot.” value is 1.45 V and the “Second Reduction Pot.” value is −0.54 V.
For the molecule `O=P(O)(O)C(O)(Cn1ccnc1)P(=O)(O)O` [ZOL, 1-hydroxy-2-(1H-imidazol-1-yl)ethane-1,1-diyldiphosphonic acid], in series [1], the “First Oxidation Pot.” value is 0.93 V, the “First Reduction Pot.” value is 0.41 V, the “Second Oxidation Pot.” value is reported as 1.27 V and the “Second Reduction Pot.” value is on record as −0.54 V.
For `[161Tb+3].[Cl-].[Cl-].[Cl-]` [^161TbCl3], the “Migration / net charge in radioelectrophoresis” value in series [2] is reported as “remained at the point of application”. In series [3] (setting [4]), this molecule returned a Liver of 1.88 ± 0.31 %ID/g and a Spleen uptake of 0.37 ± 0.12 %ID/g. In addition, in series [3] (setting [5]), the Blood was 0.02 ± 0.01 %ID/g, the Bone uptake came out at 7.31 ± 0.32 %ID/g, the Bone-to-kidney ratio is reported as 3.97 and the Bone-to-liver ratio turned out to be 3.89. For the same molecule, in series [3] (setting [5]), the Muscle is 0.08 ± 0.05 %ID/g and the Other tissues entry was “Minimal uptake”. In series [3] (2 h post-injection, injected at pH 4.5, listed as 161TbCl3 (pH 4.5)), this molecule came in with a Kidney of 1.84 ± 0.07 %ID/g. In addition, in series [3] (setting [6]), the Bone uptake was determined as 6.53 ± 0.22 %ID/g, the Kidney uptake is recorded as 1.03 ± 0.06 %ID/g, the Liver uptake was 6.99 ± 0.21 %ID/g and the Spleen uptake is given as 4.88 ± 0.15 %ID/g. In series [3] (24 h post-injection, injected at pH 7.5), this molecule registered a Bone uptake of 6.61 ± 0.14 %ID/g. The molecule further showed a Bone uptake in series [3] (7 d post-injection, injected at pH 4.5) of 7.18 ± 0.12 %ID/g. Moreover, in series [3] (setting [7]), the Bone uptake amounted to 6.68 ± 0.29 %ID/g, the Kidney uptake was 0.60 ± 0.02 %ID/g, the Liver uptake worked out at 2.33 ± 0.02 %ID/g and the Spleen uptake came to 0.79 ± 0.02 %ID/g.
In the case of `O.O.O.O.O.O.[Cl-].[Cl-].[Cl-].[Tb+3]` [Tb, terbium(III) chloride hexahydrate], in series [1], the “Second Oxidation Pot.” value is on record as 1.39 V and the “Second Reduction Pot.” value is on record as −0.56 V.

The values above are taken from publication PMC12609950, “Evaluation of ^161Tb-Labeled Diphosphonates as Potential Bone-Targeting Agents” (International Journal of Molecular Sciences, 2025).
